pIC50: −log10 of the molar value.
Experiments:
[1] = test system: HIV-1 activation in OM-10.1 cells; settings: poster NCDDG/AIDS, San Diego, 1991; some 48 compounds evaluated; cited from earlier work
[2] = test system: human neutrophil adhesion to TNF-α-stimulated human umbilical vein endothelial cells (HUVEC); assay: Inhibition of human neutrophil adhesion to TNF-α-stimulated human umbilical vein endothelial cells (51Cr-labeled neutrophils); assay type: cell-based; settings: neutrophils labeled with Cr, read-out: Adhesion ECA, % inhibition
Method: (§1) The 3-thiol, thioether, amino, alkylamino, or arylamino-benzo[b]thiophene-2-carboxamides and 3-alkoxy, aryloxy, thiol, thioether, amino, alkylamino, or arylamino-benzofuran-2-carboxamides have been shown in an in vitro assay to prevent the adhesion of neutrophils to human umbilical vein endothelial cells (HUVECS) stimulated with TNF-α. In this assay, HUVECS are stimulated with TNF-α for 4 hours, after which the cells are assayed for their ability to adhere to human neutrophils labeled with either ^51 Cr or calcein, a fluorescent dye. The details of this assay are described in the DETAILED DESCRIPTION.
Method for Determining the Inhibition of Human Neutrophil Adhesion to TNF-α, IL-1α, and LPS-Stimulated Human Umbilical Vein Endothelial Cells
(§2) Neutrophils were isolated from anticoagulant-treated venous blood obtained from healthy human volunteers according to the method of Ferrante and Thong [J. Immunol. Methods 24, 389-93 (1978)]. The cell preparations consisted of greater than 98% neutrophils.
Second passage human umbilical vein endothelial cells (HUVEC) (Clonetics, San Diego, Calif.) were seeded into Falcon 24-well cell culture plates (Becton Dickinson, Lincoln Park, N.J.) at approximately 2×10^4 cells per well. The cells were grown to confluent monolayers in endothelial basal medium (EBM, Clonetics) supplemented with 5% fetal calf serum (Hyclone Laboratories, Logan, Utah), 10 ng/mL EGF, 1 μg/mL hydrocortisone, 0.4% bovine brain extract (Clonetics) in 5% CO2 at 37° C.
Neutrophils (30×10^6) were labeled for 60 minutes at 37° C. with 100 μCi Na^51 CrO4 (ICN Biomedicals, Costa Mesa, Calif.) in 2.0 mL Ca^2+ - and Mg^2+ -free Hanks' balanced salt solution (HBSS, GIBCO Laboratories, Grand Island, N.Y.). […]
Stimulation of HUVEC with tumor necrosis factor-α (TNF-α) (Genzyme, Cambridge, Mass.), interleukin (IL-1α) (Genzyme) or E. coli 0111: B4 lipopolysaccharide (LPS) (Sigma) in the presence or absence of drug was initiated 4 hours prior to the addition of neutrophils. […] Lysates were collected and the radioactivity in each well was determined by gamma ray spectroscopy.

[3] = test system: human neutrophil adhesion to TNF-α-stimulated human umbilical vein endothelial cells (HUVEC); assay: Modified method: inhibition of human neutrophil adhesion to TNF-α-stimulated human umbilical vein endothelial cells (calcein-labeled neutrophils); assay type: cell-based; settings: footnote a, neutrophil label not given, IC50 by linear regression from 33.3, 10.0, 3.3 and 1.0 μM, read-out: Adhesion ECA, IC50
Method: as §1, §2
Modified Method for Determining the Inhibition of Human Neutrophil Adhesion to TNF-α, IL-1α, and LPS Stimulated Human Umbilical Vein Endothelial Cells
The previous assay using ^51 Cr labeled human neutrophils has been modified. The neutrophils are now labeled with the fluorescent dye calcein. The current method allows for quantification of neutrophil adherence by fluorescence spectroscopy.
Second passage HUVEC (Clonetics Corporation, San Diego, Calif., CC-2617) were seeded into Coring (Corning glass works, Corning, N.Y.) 96-well cell culture plates at approximately 5×10^3 cells/well and grown to confluency in supplemented endothelial basal medium (EBM, MCDB-131, Clonetics, 10 ng/mL EGF, 1 μg/mL hydrocortisone, 0.4% bovine brain extract, 5% Fetal Bovine Serum). One day prior to running the assay, typically 3 days postseeding, the cultures were refed with 0.2 mL/well supplemented EBM (S-EBM).
Test compounds were prepared as 10 mL stock solutions at a concentration of 1.0 mM. The compounds were initially solubilized in 0.1 mL DMSO followed by the addition of 9.9 mL S-EBM. The drug preparations were then diluted in one step to a concentration of 66.6 μM or 200 μM. Solubilizations and dilutions were performed in polystyrene containers.
Recombinant human tumor necrosis factor-α (TNF, Genzyme, Boston, Mass., code TNF-H) was prepared at 400 U/mL in S-EBM. Stock TNF was prepared to 20,000 U/mL in Delbecco's phosphate-buffered saline (PBS, Gibco, Grand Island N.Y.) plus 0.1% BSA and stored at -70° C. HUVEC were washed one time with 0.2 mL warm unsupplemented EBM and then stimulated for 4hours at 37° C. with 200 U/mL TNF in the presence of 33.3 μM or 100 μM test compound. This was accomplished by adding 0.1 mL of 400 U/mL TNF and 0.1 mL 66.6 μM or 0.1 mL of 200 μM test compound. These additions were done slowly as to not disrupt the HUVEC monolayer. Each compound was tested in six wells. Unstimulated (vehicle control) and TNF-stimulated without test compound treatments were also run in each plate.
One hour prior to adding the neutrophils (isolated as previously described) to the HUVEC, neutrophils (5×10^6 /mL) were labeled for 30 minutes at 37° C. with 5 μM calcine-AM (Molecular Probes, Eugene, Oreg.) in Hanks' balanced salt solution plus 0.45% BSA. Stock calcein was prepared to 5mM in anhydrous DMSO and stored desiccated at -20° C. At the end of the incubation the cells were washed two times in cold HBSS and resuspended to a final concentration of 1×10^6 cells/mL in unsupplemented EBM.
At the end of the 4-hour stimulation and immediately prior to the addition of the neutrophils to the HUVEC monolayer, the plates were washed with 0.2 ml warm unsupplemented EBM to remove TNF and drug. Neutrophils (1×10^5 cells) were slowly added to each of the treated wells and incubated for 30 minutes at 37° C. At the end of the incubation the plates were washed two times with 0.2 mL warm unsupplemented EBM followed by a final addition of 0.1 mL for plate scanning.
The fluorescence was determined using a Millipore Cytofluor 2300 system (excitation=480, emission=530, sensitivity=4). […]

[4] = test system: HIV-1 activation in OM-10.1 cells; assay: Inhibition of activation of latent HIV-1 in chronically infected OM-10.1 cells; assay type: cell-based; settings: Human immunodeficiency virus 1
From the text: The cellular pathways involved in mediating the activating signal from the plasma membrane to the integrated virus, resulting in HIV-1 expression, are much less clear. Recently, the development of a reliable and simple system for evaluating compounds that could prevent activation of latent HIV was reported at the National […] (NCDDG)/AIDS by P. Feorino, S. T. Butera, T. M. Folks, and R. F. Schinazi, San Diego, Calif., Nov. 3-7, 1991. The assay system employed the OM-10.1 cell line, a unique chronically-infected promyelocytic clone which remains CD4+ until HIV-1 activation with tumor necrosis factor-α. The expression of CD4+ on the cell surface and the activity of reverse transcriptase are used as markers for quantitating viral expression. Alternatively, other HIV markers, such as protease activity, which are known to those of skill in the art can be used. OM-10.1 cells remain CD4^+ until viral activation and respond to tumor necrosis factor induction, and therefore, these cultures are used to conveniently and rapidly examine pharmacologics for an ability to prevent CD4^+ down modulation (decrease in expression of CD4^+ on the cell surface) and HIV-1 expression.
A variety of compounds known to have antiviral properties against either acutely or chronically infected cells were evaluated for their ability to inhibit HIV expression in these OM-10.1 cells. […]

Compound | inhibition of activation of HIV-1 in OM-10.1 cells [1] | inhibition at 100 µM [2] [%] | further results
Cc1cn([C@H]2C[C@H](F)[C@@H](CO)O2)c(=O)[nH]c1=O [3'-fluoro-3'-deoxythymidine (FLT), 3'-fluoro-3'-deoxythymidine] | modest inhibitors of the activation of HIV-1 | – | –
CC(=O)N(O)CCCCCNC(=O)CCC(=O)N(O)CCCCCNC(=O)CCC(=O)N(O)CCCCCN [desferrioxamine] | modest inhibitors of the activation of HIV-1 | – | –
interferon Y: interferon Y, considered modest inhibitor of the activation of HIV-1 (probably interferon gamma) | modest inhibitors of the activation of HIV-1 | – | –
COc1ccc2sc(C(N)=O)c(Sc3ccccc3)c2c1 [Example 5, 5-Methoxy-3-(phenylthio)benzo[b]thiophene-2-carboxamide] | – | 48 | –
COc1ccc2sc(C(N)=O)c(SC(C)C)c2c1 [Example 1, 5-Methoxy-3-[(1-methylethyl)thio]benzo[b]thiophene-2-carboxamide] | – | – | pIC50 [3]: 4.93; pIC50 [4]: 6.40
COc1ccc2sc(C(N)=O)c(SC)c2c1 [Example 4, 5-Methoxy-3-(methylthio)benzo[b]thiophene-2-carboxamide] | – | 81 | –
CC(C)Sc1c(C(N)=O)sc2ccccc12 [Example 2, 3-[(1-Methylethyl)thio]benzo[b]thiophene-2-carboxamide] | – | 34 | –
